# Results as given in patent US8613927B2, “High affinity human antibodies to human nerve growth factor” (Regeneron Pharmaceuticals, Inc., priority 2007, dated 2013).
# Experiments:
# C57BL/6 male mice = assay: Seltzer model of neuropathic pain, Hargreaves' test; type: in vivo, mouse
# Source text: Neuropathic pain. The mouse Seltzer model of neuropathic pain (Malmberg et al. (1998) Pain 76:215-222) was used with C57BL/6 male mice, in which a partial nerve injury was produced by tying a tight ligature with a 7-0 silk suture around approximately ⅓ to ½ the diameter of the sciatic nerve of one single thigh per mouse. Post-surgery, the mice were allowed to recover for at least two days and then they were studied for several weeks post-surgery for thermal hyperalgesia in the Hargreaves' test. Controls were sham-operated mice in which the sciatic nerve was exposed and elevated but not tied. Following surgery, the mice were tested at day […] and at day 7 post-surgery to confirm that the thermal hyperalgesia had developed.
# Following the Seltzer surgery, mice were tested at days 5 and 7 post-surgery to confirm that the thermal hyperalgesia had developed.
# [1] = system: circulating levels of neurotrophin-3 (NT-3); assay: Serum NT-3 sandwich ELISA, mice of post incision pain model; type: in vivo, mouse; conditions: day 4, 25 mg/kg i.p., mean±std dev, limit of detection ~40 pg/ml
# Source text: On day 4, after the behavioral tests from post incision pain model were completed, the mice's sera were collected and analyzed for circulating levels of neurotrophin-3 (NT-3) using a sandwich ELISA. The limit of detection (˜40 pg/ml) was defined as two standard deviations (2σ) above background with a minimum of five NT-3 standards to define the response to concentration curve.
# C57BL/6 mice = assay: Post-operative incision pain model, mechanical allodynia in von Frey test; type: in vivo, mouse; conditions: Table 17
# Description: Thermal hyperalgesia was studied in the Hargreaves' test and mechanical allodynia was tested in the von Frey test. In this latter test, mice were tested after being acclimated for 2-3 hours for 4 days in an apparatus with a wire mesh floor. The test was performed by applying, in ascending order, a series of von Frey hairs through the wire mesh onto the plantar surface of the hind paw with the incision. A response was considered positive if the paw was raised from the platform in response to application of the filament. Starting from the thinnest hair, each von Frey filament was applied up to five times until a response was observed.
# [2] = biological target: Human NGF binding to human p75-hFc (Homo sapiens, UniProt P01138, DEL136-138/DEL208-209); assay: BIACORE receptor blocking assay, free NGF bound to p75-hFc; conditions: percentage free NGF bound; NGF 10-25 nM with molar excess of antibody; NGF alone = 100%
# Sequence of Human NGF binding to human p75-hFc (P01138 with tags, fused parts or gaps DEL136-138/DEL208-209): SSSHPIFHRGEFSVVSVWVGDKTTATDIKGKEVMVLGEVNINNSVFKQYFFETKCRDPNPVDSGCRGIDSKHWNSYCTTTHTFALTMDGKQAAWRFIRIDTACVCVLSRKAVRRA
# Source text: (§1) To identify blocking antibodies, a receptor blocking assay was designed using a BIACORE™ 3000 instrument. Recombinant human TrkA-hFc and human p75-hFc proteins were amine-coupled to a CM5 chip to a density of about 5000-6000 RU.
# [3] = biological target: Human NGF binding to human TrkA-hFc (Homo sapiens, UniProt P01138, DEL136-138/DEL208-209); assay: BIACORE receptor blocking assay, free NGF bound to TrkA-hFc; conditions: percentage free NGF bound; NGF 10-25 nM with molar excess of antibody; NGF alone = 100%
# Sequence of Human NGF binding to human TrkA-hFc (P01138 with tags, fused parts or gaps DEL136-138/DEL208-209): as above
# Source text: as §1
molecule,measurement,setting,value
REGN475: HCVR/LCVR SEQ ID NO:108/110 and mutant hIgG4 SEQ ID NO:543,pain relief,"C57BL/6 male mice; 50 mg/kg s.c. or i.p. at day 7 post-surgery, p<0.001-0.05",Significant pain relief was observed
same,mean percent change from Hargreaves baseline,"C57BL/6 male mice; Table 25, 50 mg/kg s.c. at day 7, day 5 after surgery",−55.2 ± 3.5%
same,mean percent change from Hargreaves baseline,"C57BL/6 male mice; Table 25, 50 mg/kg s.c. at day 7, day 7",−50.9 ± 4.3%
same,mean percent change from Hargreaves baseline,"C57BL/6 male mice; Table 25, 50 mg/kg s.c. at day 7, day 8",10.3 ± 14.1%
same,mean percent change from Hargreaves baseline,"C57BL/6 male mice; Table 25, 50 mg/kg s.c. at day 7, day 9",8.2 ± 7.2%
same,mean percent change from Hargreaves baseline,"C57BL/6 male mice; Table 25, 50 mg/kg s.c. at day 7, day 12",−20.1 ± 4.3%
same,mean percent change from Hargreaves baseline,"C57BL/6 male mice; Table 25, 50 mg/kg s.c. at day 7, day 15",−14.1 ± 6.1%
same,mean percent change from Hargreaves baseline,"C57BL/6 male mice; Table 25, 50 mg/kg s.c. at day 7, day 19",3.0 ± 10.9%
same,mean percent change from Hargreaves baseline,"C57BL/6 male mice; Table 25, 50 mg/kg s.c. at day 7, day 22",−13.7 ± 13.4%
same,mean percent change from Hargreaves baseline,"C57BL/6 male mice; Table 25, 50 mg/kg s.c. at day 7 post-surgery, Baseline",0.0 ± 0.0%
same,mean percent change from Hargreaves baseline,"C57BL/6 male mice; Table 26, 50 mg/kg i.p. at day 7, day 5 after surgery",−58.7 ± 2.3%
same,mean percent change from Hargreaves baseline,"C57BL/6 male mice; Table 26, 50 mg/kg i.p. at day 7, day 7",−61.7 ± 2.7%
same,mean percent change from Hargreaves baseline,"C57BL/6 male mice; Table 26, 50 mg/kg i.p. at day 7, day 8",−8.2 ± 16.1%
same,mean percent change from Hargreaves baseline,"C57BL/6 male mice; Table 26, 50 mg/kg i.p. at day 7, day 9",−7.9 ± 9.6%
same,mean percent change from Hargreaves baseline,"C57BL/6 male mice; Table 26, 50 mg/kg i.p. at day 7, day 12",−0.1 ± 22.8%
same,mean percent change from Hargreaves baseline,"C57BL/6 male mice; Table 26, 50 mg/kg i.p. at day 7, day 15",−10.8 ± 18.0%
same,mean percent change from Hargreaves baseline,"C57BL/6 male mice; Table 26, 50 mg/kg i.p. at day 7 post-surgery, Baseline",0.0 ± 0.0%
same,Serum NT-3,[1],not detected
same,Paw Withdrawal Threshold,"C57BL/6 mice; 25 mg/kg i.p. on day 1 post-surgery, Baseline",1.286 ± 0.074 g
same,Paw Withdrawal Threshold,"C57BL/6 mice; 25 mg/kg i.p., 5 hr after treatment",0.034 ± 0.009 g
same,Paw Withdrawal Threshold,"C57BL/6 mice; 25 mg/kg i.p., 22 hr after treatment",0.714 ± 0.074 g
same,Paw Withdrawal Threshold,"C57BL/6 mice; 25 mg/kg i.p., 45 hr after treatment",1.086 ± 0.184 g
same,Paw Withdrawal Threshold,"C57BL/6 mice; 25 mg/kg i.p., 70 hr after treatment",1.571 ± 0.437 g
same,Paw Withdrawal Threshold,"C57BL/6 mice; 25 mg/kg i.p., Day 1 (post-surgery, before injection)",0.010 ± 0.002 g
"p75-hFc: soluble receptorbody: extracellular domain of human p75 fused with Fc portion of human IgG1 (protein, left off: a dimerising Fc or GST, soluble receptorbody: extracellular domain of human p75 fused with Fc portion of human IgG1) KEACPTGLYTHSGECCKACNLGEGVAQPCGANQTVCEPCLDSVTFSDVVSATEPCKPCTECVGLQSMSAPCVEADDAVCRCAYGYYQDETTGRCEACRVCEAGSGLVFSCQDKQNTVCEECPDGTYSDEANHVDPCLPCTVCEDTERQLRECTRWADAECEEIPGRWITRSTPPEGSDSTAPSTQEPEAPPEQDLIASTVAGVVTTVMGSSQPVVTRGTTDN",% Binding p75-hFc,[2],5%
same,% Binding TrkA-hFc,[3],3%
"TrkA-hFc: soluble receptorbody: extracellular domain of human TrkA fused with Fc portion of human IgG1 (protein, left off: a dimerising Fc or GST, soluble receptorbody: extracellular domain of human TrkA fused with Fc portion of human IgG1) AAPCPDACCPHGSSGLRCTRDGALDSLHHLPGAENLTELYIENQQHLQHLELRDLRGLGELRNLTIVKSGLRFVAPDAFHFTPRLSRLNLSFNALESLSWKTVQGLSLQELVLSGNPLHCSCALRWLQRWEEEGLGGVPEQKLQCHGQGPLAHMPNASCGVPTLKVQVPNASVDVGDDVLLRCQVEGRGLEQAGWILTELEQSATVMKSGGLPSLGLTLANVTSDLNRKNVTCWAENDVGRAEVSVQVNVSFPASVQLHTAVEMHHWCIPFSVDGQPAPSLRWLFNGSVLNETSFIFTEFLEPAANETVRHGCLRLNQPTHVNNGNYTLLAANPFGQASASIMAAFMDNPFEFNPEDPIPVSFSPVDTNSTSGDPVEKKDETPFGVSVAVG",% Binding p75-hFc,[2],15%
same,% Binding TrkA-hFc,[3],10%
